# Measurements reported in US20260022142A1, “MACROCYCLIC IMMUNOMODULATORS” (Bristol-Myers Squibb Company, priority 2022, published 2026).
# pIC50: −log10 of the molar value. Bridge positions count the residues as written; N and C are the ends. Square brackets hold non-standard residues; d marks the D form. Peptide text beside a SMILES is read from it. * marks the point of attachment. ξ: configuration not given here. Phe(4-COOH) = N[C@@H](Cc1ccc(C(=O)O)cc1)C(=O)O; Phe(2,4-F2) = N[C@@H](Cc1ccc(F)cc1F)C(=O)O; Bip = N[C@@H](Cc1ccc(-c2ccccc2)cc1)C(=O)O; Phe(4-CN) = N#Cc1ccc(C[C@H](N)C(=O)O)cc1; Phe(3-Me) = Cc1cccc(C[C@H](N)C(=O)O)c1; Val(3-OH) = CC(C)(O)[C@H](N)C(=O)O; hArg = N=C(N)NCCCC[C@H](N)C(=O)O; 4Pal = N[C@@H](Cc1ccncc1)C(=O)O; Cha = N[C@@H](CC1CCCCC1)C(=O)O; Thr(3ξ) = CC(O)[C@H](N)C(=O)O; Carboxymethyl = O=C(O)C*; Orn = NCCC[C@H](N)C(=O)O; Aun = NCCCCCCCCCCC(=O)O; Dab = NCC[C@H](N)C(=O)O; Nva = CCC[C@H](N)C(=O)O; Dap = NC[C@H](N)C(=O)O; AEEA = NCCOCCOCC(=O)O; Ac3c = NC1(C(=O)O)CC1
# Target: T1, PD-1/PD-L1 interaction (PE-labeled human PD-L1-Ig binding to Jurkat cell line over-expressing human PD-1) (Homo sapiens, UniProt Q15116)
# T1 construct: expressed in transfected cells; host or cells: Jurkat
# Experiment: Jurkat-PD-1 Cell Binding High-Content Screening Assay (CBA)
# Assay type: cell-based
# Conditions: Jurkat cell line over-expressing human PD-1; PE-labeled PD-L1-Ig 20 nM final; read-out: Jurkat hPD1-PDL1 IC50
# Procedure, shortened: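 Jurkat-hPD-1 cells, DMEM/10% FCS; cpd 2 h 37° C; PE-PD-L1-Ig 20 nM final, 1 h; 4% PFA fix + Hoechst 33342, 3× dPBS wash; high-content imaging read-out.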
# T1 sequence (Q15116 25-288): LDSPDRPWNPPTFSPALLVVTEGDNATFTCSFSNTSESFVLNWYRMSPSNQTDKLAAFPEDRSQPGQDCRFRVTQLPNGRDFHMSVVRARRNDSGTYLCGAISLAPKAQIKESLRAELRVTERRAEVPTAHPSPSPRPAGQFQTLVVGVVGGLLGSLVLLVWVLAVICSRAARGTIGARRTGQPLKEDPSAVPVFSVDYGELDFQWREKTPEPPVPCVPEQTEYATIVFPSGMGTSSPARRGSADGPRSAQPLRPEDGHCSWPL
row,Structure (SMILES),pIC50
1,Cc1cccc(C[C@@H]2NC(=O)[C@H](CC(=O)O)NC(=O)[C@H](Cc3ccc(OCC(=O)O)cc3)NC(=O)[C@H](CCCNC(=N)N)NC(=O)CSC[C@@H](C(=O)NC3(C(=O)NCCCCCCCCCCC(=O)O)CC3)NC(=O)[C@H]([C@@H](C)O)NC(=O)[C@H](C(C)C)NC(=O)[C@H](CC3CCCCC3)NC(=O)[C@H](CCN)NC(=O)[C@@H](CC(C)C)NC(=O)[C@H](CCN)NC(=O)[C@H](Cc3ccc(OCC(=O)O)cc3)NC(=O)[C@H](Cc3ccc(-c4ccccc4)cc3)NC(=O)[C@H](Cc3ccc(OCC(=O)O)cc3)NC2=O)c1 [Compound 2161] ({CH2CO}-RY(Carboxymethyl)D[Phe(3-Me)]Y(Carboxymethyl)[Bip]Y(Carboxymethyl)[Dab][dL][Dab][Cha]VTC[Ac3c][Aun]-OH; thioether N-14),7.89
2,"Cc1cccc(C[C@@H]2NC(=O)[C@H](CC(=O)O)NC(=O)[C@H](Cc3ccc(OCC(=O)O)cc3)NC(=O)[C@H](CN)NC(=O)CSC[C@@H](C(=O)N[C@@H](CCN)C(=O)NCCOCCOCC(=O)NCCCCCCCCCCC(=O)O)NC(=O)[C@H](CCC(=O)O)NC(=O)[C@H](C(C)C)NC(=O)[C@H](Cc3ccc(F)cc3F)NC(=O)[C@H](CCN)NC(=O)[C@@H](CC(C)C)NC(=O)[C@H](CCCN)NC(=O)[C@H](Cc3ccc(OCC(=O)O)cc3)NC(=O)[C@H](Cc3ccc(-c4ccccc4)cc3)NC(=O)[C@H](Cc3ccc(C(=O)O)cc3)NC2=O)c1 [Compound 1272] ({CH2CO}-[Dap]Y(Carboxymethyl)D[Phe(3-Me)][Phe(4-COOH)][Bip]Y(Carboxymethyl)[Orn][dL][Dab][Phe(2,4-F2)]VEC[Dab][AEEA][Aun]-OH; thioether N-14)",7.13
3,Cc1cccc(C[C@@H]2NC(=O)[C@H](CC(=O)O)NC(=O)[C@H](Cc3ccc(OCC(=O)O)cc3)NC(=O)[C@H](Cc3ccc(C#N)cc3)NC(=O)CSC[C@@H](C(=O)N[C@@H](CCN)C(=O)NCCCCCCCCCCC(=O)O)NC(=O)[C@H](CO)NC(=O)[C@H](C(C)(C)O)NC(=O)[C@H](CC3CCCCC3)NC(=O)[C@H](CCN)NC(=O)[C@@H](CC(C)C)NC(=O)[C@H](CCCN)NC(=O)[C@H](Cc3ccc(OCC(=O)O)cc3)NC(=O)[C@H](Cc3ccc(-c4ccccc4)cc3)NC(=O)[C@H](Cc3ccc(OCC(=O)O)cc3)NC2=O)c1 [Compound 2183] ({CH2CO}-[Phe(4-CN)]Y(Carboxymethyl)D[Phe(3-Me)]Y(Carboxymethyl)[Bip]Y(Carboxymethyl)[Orn][dL][Dab][Cha][Val(3-OH)]SC[Dab][Aun]-OH; thioether N-14),7.88
4,CCC[C@@H]1NC(=O)CSC[C@@H](C(=O)N[C@@H](CCN)C(=O)NCCOCCOCC(=O)NCCCCCCCCCCC(=O)O)NC(=O)[C@H](CO)NC(=O)[C@H](C(C)(C)O)NC(=O)[C@H](CC2CCCCC2)NC(=O)[C@H](CCN)NC(=O)[C@@H](CC(C)C)NC(=O)[C@H](CCCN)NC(=O)[C@H](Cc2ccc(OCC(=O)O)cc2)NC(=O)[C@H](Cc2ccc(-c3ccccc3)cc2)NC(=O)[C@H](Cc2ccc(OCC(=O)O)cc2)NC(=O)[C@H](Cc2cccc(C)c2)NC(=O)[C@H](CC(=O)O)NC(=O)[C@H](Cc2ccc(OCC(=O)O)cc2)NC1=O [Compound 2246] ({CH2CO}-[Nva]Y(Carboxymethyl)D[Phe(3-Me)]Y(Carboxymethyl)[Bip]Y(Carboxymethyl)[Orn][dL][Dab][Cha][Val(3-OH)]SC[Dab][AEEA][Aun]-OH; thioether N-14),9.22
5,Cc1cccc(C[C@@H]2NC(=O)[C@H](CC(=O)O)NC(=O)[C@H](Cc3ccc(OCC(=O)O)cc3)NC(=O)[C@H](Cc3ccncc3)NC(=O)CSC[C@@H](C(=O)N[C@@H](CCN)C(=O)NCCOCCOCC(=O)NCCCCCCCCCCC(=O)O)NC(=O)[C@H](CO)NC(=O)[C@H](C(C)(C)O)NC(=O)[C@H](CC3CCCCC3)NC(=O)[C@H](CCN)NC(=O)[C@@H](CC(C)C)NC(=O)[C@H](CCC(N)=O)NC(=O)[C@H](Cc3ccc(C(=O)O)cc3)NC(=O)[C@H](Cc3ccc(-c4ccccc4)cc3)NC(=O)[C@H](Cc3ccc(C(=O)O)cc3)NC2=O)c1 [Compound 3747] ({CH2CO}-[4Pal]Y(Carboxymethyl)D[Phe(3-Me)][Phe(4-COOH)][Bip][Phe(4-COOH)]Q[dL][Dab][Cha][Val(3-OH)]SC[Dab][AEEA][Aun]-OH; thioether N-14),7.92
6,Cc1cccc(C[C@@H]2NC(=O)[C@H](CC(=O)O)NC(=O)[C@H](Cc3ccc(OCC(=O)O)cc3)NC(=O)[C@H](Cc3ccccc3)NC(=O)CSC[C@@H](C(=O)N[C@@H](CCN)C(=O)NCCCCCCCCCCC(=O)O)NC(=O)[C@H](Cc3cnc[nH]3)NC(=O)[C@H](C(C)O)NC(=O)[C@H](CC3CCCCC3)NC(=O)[C@H](CCN)NC(=O)[C@@H](CC(C)C)NC(=O)[C@H](CCCN)NC(=O)[C@H](Cc3ccc(OCC(=O)O)cc3)NC(=O)[C@H](Cc3ccc(-c4ccccc4)cc3)NC(=O)[C@H](Cc3ccc(C(=O)O)cc3)NC2=O)c1 (stereo partly drawn) [Compound 3709] ({CH2CO}-FY(Carboxymethyl)D[Phe(3-Me)][Phe(4-COOH)][Bip]Y(Carboxymethyl)[Orn][dL][Dab][Cha][Thr(3ξ)]HC[Dab][Aun]-OH; thioether N-14),7.26

# The remaining lines, values ahead:
row,pIC50,Structure (SMILES)
1,7.58,Cc1cccc(C[C@@H]2NC(=O)[C@H](CC(=O)O)NC(=O)[C@H](Cc3ccc(OCC(=O)O)cc3)NC(=O)[C@H](C(C)O)NC(=O)CSC[C@@H](C(=O)N[C@@H](CCN)C(=O)NCCCCCCCCCCC(=O)O)NC(=O)[C@H](C(C)O)NC(=O)[C@H](C(C)C)NC(=O)[C@H](CC3CCCCC3)NC(=O)[C@H](CCN)NC(=O)[C@@H](CC(C)C)NC(=O)[C@H](CCCN)NC(=O)[C@H](Cc3ccc(O)cc3)NC(=O)[C@H](Cc3ccc(-c4ccccc4)cc3)NC(=O)[C@H](Cc3ccc(O)cc3)NC2=O)c1 (stereo partly drawn) [Compound 3456] ({CH2CO}-[Thr(3ξ)]Y(Carboxymethyl)D[Phe(3-Me)]Y[Bip]Y[Orn][dL][Dab][Cha]V[Thr(3ξ)]C[Dab][Aun]-OH; thioether N-14)
2,8.04,Cc1cccc(C[C@@H]2NC(=O)[C@H](CC(=O)O)NC(=O)[C@H](Cc3ccc(OCC(=O)O)cc3)NC(=O)[C@H](CCCCNC(=N)N)NC(=O)CSC[C@@H](C(=O)NCCOCCOCC(=O)NCCCCCCCCCCC(=O)O)NC(=O)[C@H](CCC(N)=O)NC(=O)[C@H](C(C)C)NC(=O)[C@H](CC3CCCCC3)NC(=O)[C@H](CCN)NC(=O)[C@@H](CC(C)C)NC(=O)[C@H](CCN)NC(=O)[C@H](Cc3ccc(O)cc3)NC(=O)[C@H](Cc3ccc(-c4ccccc4)cc3)NC(=O)[C@H](C(C)C)NC2=O)c1 [Compound 3396] ({CH2CO}-[hArg]Y(Carboxymethyl)D[Phe(3-Me)]V[Bip]Y[Dab][dL][Dab][Cha]VQC[AEEA][Aun]-OH; thioether N-14)
3,7.16,Cc1cccc(C[C@@H]2NC(=O)[C@H](CC(=O)O)NC(=O)[C@H](Cc3ccc(OCC(=O)O)cc3)NC(=O)[C@H](CN)NC(=O)CSC[C@@H](C(=O)N[C@@H](CCN)C(=O)NCCCCCCCCCCC(=O)O)NC(=O)[C@H]([C@@H](C)O)NC(=O)[C@H](C(C)C)NC(=O)[C@H](CC3CCCCC3)NC(=O)[C@H](Cc3cnc[nH]3)NC(=O)[C@@H](CC(C)C)NC(=O)[C@H](CCCN)NC(=O)[C@H](C(C)C)NC(=O)[C@H](Cc3ccc(-c4ccccc4)cc3)NC(=O)[C@H](C(C)C)NC2=O)c1 [Compound 1101] ({CH2CO}-[Dap]Y(Carboxymethyl)D[Phe(3-Me)]V[Bip]V[Orn][dL]H[Cha]VTC[Dab][Aun]-OH; thioether N-14)
4,7.80,Cc1cccc(C[C@@H]2NC(=O)[C@H](CC(=O)O)NC(=O)[C@H](Cc3ccc(OCC(=O)O)cc3)NC(=O)[C@H](CCCNC(=N)N)NC(=O)CSC[C@@H](C(=O)N[C@@H](CCN)C(=O)NCCCCCCCCCCC(=O)O)NC(=O)[C@H]([C@@H](C)O)NC(=O)[C@H](C(C)C)NC(=O)[C@H](CC3CCCCC3)NC(=O)[C@H](CCN)NC(=O)[C@@H](CC(C)C)NC(=O)[C@H](CCCN)NC(=O)[C@H](Cc3ccc(O)cc3)NC(=O)[C@H](Cc3ccc(-c4ccccc4)cc3)NC(=O)[C@H](Cc3ccc(OCC(=O)O)cc3)NC2=O)c1 [Compound 2130] ({CH2CO}-RY(Carboxymethyl)D[Phe(3-Me)]Y(Carboxymethyl)[Bip]Y[Orn][dL][Dab][Cha]VTC[Dab][Aun]-OH; thioether N-14)
5,7.92,Cc1cccc(C[C@@H]2NC(=O)[C@H](CC(=O)O)NC(=O)[C@H](Cc3ccc(OCC(=O)O)cc3)NC(=O)[C@H](CCCNC(=N)N)NC(=O)CSC[C@@H](C(=O)N[C@@H](CCN)C(=O)NCCCCCCCCCCC(=O)O)NC(=O)[C@H](CCCN)NC(=O)[C@H](C(C)C)NC(=O)[C@H](CC3CCCCC3)NC(=O)[C@H](CCN)NC(=O)[C@@H](CC(C)C)NC(=O)[C@H](CCCN)NC(=O)[C@H](C(C)C)NC(=O)[C@H](Cc3ccc(-c4ccccc4)cc3)NC(=O)[C@H](C(C)C)NC2=O)c1 [Compound 3292] ({CH2CO}-RY(Carboxymethyl)D[Phe(3-Me)]V[Bip]V[Orn][dL][Dab][Cha]V[Orn]C[Dab][Aun]-OH; thioether N-14)
6,7.59,Cc1cccc(C[C@@H]2NC(=O)[C@H](CC(=O)O)NC(=O)[C@H](Cc3ccc(OCC(=O)O)cc3)NC(=O)[C@H](CCCCNC(=N)N)NC(=O)CSC[C@@H](C(=O)NCCOCCOCC(=O)N[C@@H](CCN)C(=O)NCCCCCCCCCCC(=O)O)NC(=O)[C@H](CCCN)NC(=O)[C@H](C(C)C)NC(=O)[C@H](CC3CCCCC3)NC(=O)[C@H](CN)NC(=O)[C@@H](CC(C)C)NC(=O)[C@H](CCCN)NC(=O)[C@H](C(C)C)NC(=O)[C@H](Cc3ccc(-c4ccccc4)cc3)NC(=O)[C@H](C(C)C)NC2=O)c1 [Compound 3249] ({CH2CO}-[hArg]Y(Carboxymethyl)D[Phe(3-Me)]V[Bip]V[Orn][dL][Dap][Cha]V[Orn]C[AEEA][Dab][Aun]-OH; thioether N-14)
